Patent US20160090351A1, “INHIBITORS OF DEUBIQUITINATING PROTEASES” (BRANDEIS UNIVERSITY, priority 2013, published 2016)
Entries after “also recorded” stand apart in the source; their conditions may differ.

Tests used:
[1] = test system: K562 cells; assay: apoptosis, cell cycle and viability of K562 cells by flow cytometry; format: cell-based, human; details: K562 cells
Method: K562 cells are from a myelogenous leukemia line that expresses Bcr-Abl kinase. A. K562 cells were treated with TU50 for 24 hours after which time the cells were treated with annexin V-FITC and propidium iodide. Cells were then analyzed by flow cytometry. Cells showing only annexin V-FITC were considered apoptotic whereas cells showing both annexin V-FITC and propidium iodide were considered necrotic. N=2. All points show a significant difference to the vehicle (DMSO) with p<0.05. […] All points show a significant difference to vehicle (DMSO) with p<0.02. C. Same as A, but the incubation period was 8 hours. N>2. All points show a significant difference to DMSO with p<0.02. D, K562 cells were treated with TU50 for 4 hours. Samples were analyzed by SDS-PAGE and immunoblotting with anti-Bcr-Abl antibody. E. Quantitation of blot in D. The signal for tubulin was used to normalize the Bcr-Abl signal. N=3.
FIG. 40 depicts data showing that diphenyl carbonates induce the degradation of Bcr-Abl kinase. A. K562 cells were treated with C17 for 24 h (1 dose) then analyzed for Bcr-Abl expression by western blot with anti-Abl antibody. B. Quantitation of blots in A normalized to actin. C. K562 cells were treated with C17 for 24 h then the amount of cells in G1 and apoptosis were recorded (N=3). D. K562 were treated with C15 for 4 h then analyzed for Bcr-Abl expression using western blot. E. Quantitation of Bcr-Abl from D normalized to tubulin (N=4). F. Same K562 lysates were separately analyzed for K63-linked ubiquitin. G. Quantitation of blots in F (N=4). Differences between all bars is significant p<0.01). H. K562 cells were treated with C15 for 24 h after which time cells were fixed in ethanol, treated with propodium iodide/RNAse then analyzed by FACS. Viability was calculated using forward and side scatter. I. Same experiment as H but red fluorescence was measured to determine DNA content

[2] = test system: SMAD4; assay: SMAD4 monoubiquitination in K562 cells by western blot; format: cell-based, human
Method: FIG. 34 depicts data showing that diphenylcarbonates cause the accumulation of HMW-Ub and reduce the levels of Bcr-Abl in K562 cells. A. K562 cells were treated with diphenyl carbonates (50 μM) for 2 h and then assayed for the accumulation of K48-linked Ub. B. As in A, but Bcr-Abl was measured by immunoblotting with anti-Abl antibodies. C. K562 cells were treated with C17 (50 μM) in the presence and absence of bortezomib (6 μM) for 4 hours and Bcr-Abl was measured by immunblotting with anti-Abl antibodies. D. Quantitation of blot in C. Significance: DMSO relative to C17 and bortezomib p=0.002; DMSO relative to C17, p=0.03. E. K562 cells were treated with C15 for 4 hours then analyzed for SMAD4 monoubiquitination by western blot. F. Quantitation of blots in A. (N=3). See also FIG. 40.
(§1) Transfected cells were harvested 1.5 days post transfection. […] Typically clarified lysate was analyzed.

[3] = test system: Cos-1 cells; assay: accumulation of K48- and K63-linked HMW-Ub in Cos-1 cells; format: cell-based, monkey
Method: A. Cos-1 cells were treated with C15 dosing every 2 h for 4 hours. Cells were lysed in standard lysis buffer (without detergent) and the sample was clarified prior to analysis. The accumulation of K48-linked ubiquitin was assayed by SDS-PAGE and by western blot. An intervening lane has been removed for clarity. B Lysates and pellet in A were sonicated in SDS at 4° C., centrifuged then analyzed by SDS-PAGE and by western blot. An intervening lane has been removed for clarity. C. Quantitation of blots in A. D. Quantitation of blots in B.
FIG. 39 depicts data showing the effects of diphenyl carbonates in whole cells. A. Cos-1 cells expressing GFP-Ub(G76V) were treated with the stated diphenyl carbonate (100 μM), bortezomib (B, 20 μM) or DMSO (D) for 8 h. GFP levels were quantified by flow cytometry. B. Cells from A were assessed for viability using propidium iodide dye exclusion assay. C. […] After this time GFP levels were quantified by flow cytometry. D. Cells from C were assessed for viability using propidium iodide dye exclusion. […] G. Cos-1 cells were treated with C15 for 2 hours then analyzed for K48-linked ubiquitin by western blot. […] I. Quantitation of blots in […] (N=3).
as §1

[4] = test system: MCF7 cells; assay: viability and cell cycle of MCF7 cells (Alamar Blue, FACS)
Method: MCF7 cells were dosed every 2 hours with the indicated concentration of C15. After 6 hours, cells were lysed by freeze thaw and then sonicated in 0.5% SDS. […] MCF7 cells were treated under the stated conditions then analyzed for cell cycle. […] G. Cells treated with C17 (25 μM), dosed every 24 hours. H. Cells treated with C17 (50 μM), dosed every 24 hours. […] These cells were left for 72 h (single dose) after which time the total number of viable cells was analyzed using Alamar Blue®. All data are n≧4 showing mean+/−s.e.m. K. MCF7 cells were plated with C17 for 24 hours after which time the total number of viable cells was measured by Alamar Blue®.
All cells were grown at 37° C. in a 5% CO2 humidified atmosphere in DMEM supplemented with 10% heat inactivated FBS, 1× glutamax, and 1× penicillin/streptomycin. […] Proliferation assays were conducted by plating cells at 5% confluence in 96 well plates together with compound or 0.1% DMSO. Cells were allowed to grow for 72 hours (a 24 h dosing regimen was used for carbonate compounds) and then Alamar Blue® was added and number of cells was measured by fluorescence on a microplate reader.

[5] = test system: USP9x, USP19, USP7/8, USP28/15; assay: HA-Ub-VS activity profiling in cell lysates, USPs; format: biochemical, human
[6] = test system: desumoylation; assay: stabilization of SUMOylated proteins in lysates from HA-SUMO transfected HEK 293T cells; format: biochemical, human; details: G5 5 μM, C4 300 μM
Method: Untransfected HEK 293T cell lysates were treated with the vehicle alone (DMSO at 1%) or compound and incubated at 37° C. for 2 h. Samples were analyzed by SDS-PAGE and immunoblotting with antibody recognizing K48-linked ubiquitin. D=DMSO; G5=G5 isopeptidase inhibitor 1. A-D show titrations of different compounds (see FIG. 29B for structures). E-H Lysates were prepared from HEK 293T cells expressing HA-SUMO and treated with vehicle alone (DMSO, 1%) or compound. Samples were incubated for the appropriate time and analyzed by SDS-PAGE and immunoblotting with anti-HA antibody. Representative experiments are shown. E. Vehicle control. F. G5, 5 μM; G. C4, 300 μM. H. Quantification of blots as in E-G, N=2 average and range. I-J. Lysates were prepared from HEK 293T cells expressing HA-Ub and treated with either vehicle alone (1% DMSO) or compound at 37° C. for 3 h. Samples were analyzed by SDS-PAGE and immunoblotting with anti-HA antibody. I. A representative experiment. J. Quantitation of experiments in I (N=2 average and range shown). […]
Similar effects were observed when the endogenous K48-linked ubiquitin pool was monitored in lysates prepared from wild-type HEK 293T cells (FIG. 37A-D). Unfortunately, K63-linked ubiquitin could not be detected in these lysates. The ability of C4 to stabilize SUMOylated proteins in lysates from HA-SUMO transfected HEK 293T cells was also assessed.

## NCc1ccc(OC(=O)Oc2ccc(Br)cc2)cc1 [Compound C15, 4-(aminomethyl)phenyl(4-bromophenyl)carbonate]
[1]; 24 h, at 50 μM
  viability, G1 and apoptotic cells: decrease in viability, and increase in G1 and apoptotic cells
[2]
  SMAD4 monoubiquitination: increased SMAD4 monoubiquitination
[3]
  increase in total K48-linked and K63-linked HMW-Ub: 3-5 fold
[3]; dosing every 2 h for 4 hours
  K48-linked HMW ubiquitin, soluble versus whole cell fraction: causes the accumulation of soluble HMW-Ub in Cos-1 cells; also recorded: only detectable in the soluble fraction

## NCc1ccc(OC(=O)Oc2ccc3ccccc3c2)cc1 [Compound C17]
[4]; Alamar Blue
  viability after single dose, 24 h: small, but significant, decrease in viability
[4]; FACS, dosed every 24 hours
  G1 phase cells: significant increase in G1 phase cells
[1]; 24 h incubation
  G1 and apoptotic cells: dose-dependent increase in G1 and apoptotic cells
[5]; C17 25 μM immediately followed by HA-Ub-VS 1.5 μM
  HA-Ub-VS labeling without preincubation: not sufficient to inhibit the labeling of any of the DUBs
[5]; C17 250 μM preincubated, diluted 10-fold
  HA-Ub-VS labeling after preincubation and dilution: labeling was reduced

## O=C1/C(=C/c2ccc([N+](=O)[O-])cc2)CS(=O)(=O)C/C1=C\c1ccc([N+](=O)[O-])cc1 [Compound G5, reference compound]
[6]
  inhibition of desumoylation: Neither G5 nor C4 inhibited desumoylation
